The values that follow come from publication PMC6151695, “Novel Selective Estrogen Receptor Ligand Conjugates Incorporating Endoxifen-Combretastatin and Cyclofenil-Combretastatin Hybrid Scaffolds: Synthesis and Biochemical Evaluation” (Molecules : A Journal of Synthetic Chemistry and Natural …, 2017).

“Also recorded” adds a separate entry of the source. Read-outs that look alike come from different tables or passages of the source.

The test system of series [1] is MCF-7 cells. Briefly: Flow cytometry (propidium iodide) cell cycle and apoptosis analysis in MCF-7. It counts as cell-based, human. To be noted: for apoptosis (in words): MCF-7, 72 h; for apoptosis / G2/M-arrest: MCF-7, 10 µM, 72 h. The procedure: Flow cytometry with propidium iodide stained cells was carried out to analyse the percentage of cells in each stage of the cell cycle and the number of apoptotic or dead cells. Samples were treated for 72 h at 10 µM. […] […].
(§1) MCF-7 cells were seeded at a density of 5 × 10^4 cells/well in a 12-well plate and treated with the indicated compounds for 72 h. Samples were then centrifuged at 650× g for 5 min and resuspended in 100 µL ice-cold PBS. Ice-cold 70% (v/v) ethanol (1 mL) was then added to fix the samples overnight at 4 °C. Samples were subsequently centrifuged at 800× g for 10 min and resuspended in 200 µL PBS. RNase A (12.5 µL of 10 mg/mL) and propidium iodide (37.5 µL of 1 mg/ mL) were added to samples which were then incubated for 30 min at 37°C. Cell cycle analysis was performed at 488 nm using a FACS Calibur flow cytometer (Becton Dickinson, Franklin Lakes, NJ, USA). The Macintosh-based application CellQuest was then used to analyse the data of 10,000 gated cells once cell debris had been excluded. Data points represent the mean ± S.E.M. of three independent experiments.
For orientation: In flow cytometry, cells or beads pass a laser one at a time.

For series [2], the system named is peripheral blood mononuclear cells (PBMCs). In words: Flow cytometry (propidium iodide) in PBMCs of healthy donors. It counts as cell-based, human. To be noted: 10 µM, 72 h. The procedure:
Next, the same cohort of compounds was tested on peripheral blood mononuclear cells (PBMCs) isolated from the blood of healthy donors. Cells were treated with 10 µM of each compound for 72 h and subjected to flow cytometry.
as §1
Fresh peripheral blood was collected from healthy donors and diluted 1:3 with RPMI medium and added to half the equivalent volume of Lymphoprep. Samples were centrifuged at 750× g for 30 min to form a Ficoll gradient. The white buffy layer containing the peripheral blood mononuclear cells was removed, diluted to a volume of 50 mL with medium and centrifuged again for 10 min at 650× g. Cells were then seeded at a density of 1 × 10^6 cells in 1 mL of RPMI medium supplemented with 10% FBS, 2 mM L-glutamine and 100 U/mL penicillin and 100 µg/mL streptomycin.

For another series, the target named is T1, human ERα (Homo sapiens, UniProt P03372).
T1 construct: purchased Invitrogen
T1 sequence (P03372 1-595): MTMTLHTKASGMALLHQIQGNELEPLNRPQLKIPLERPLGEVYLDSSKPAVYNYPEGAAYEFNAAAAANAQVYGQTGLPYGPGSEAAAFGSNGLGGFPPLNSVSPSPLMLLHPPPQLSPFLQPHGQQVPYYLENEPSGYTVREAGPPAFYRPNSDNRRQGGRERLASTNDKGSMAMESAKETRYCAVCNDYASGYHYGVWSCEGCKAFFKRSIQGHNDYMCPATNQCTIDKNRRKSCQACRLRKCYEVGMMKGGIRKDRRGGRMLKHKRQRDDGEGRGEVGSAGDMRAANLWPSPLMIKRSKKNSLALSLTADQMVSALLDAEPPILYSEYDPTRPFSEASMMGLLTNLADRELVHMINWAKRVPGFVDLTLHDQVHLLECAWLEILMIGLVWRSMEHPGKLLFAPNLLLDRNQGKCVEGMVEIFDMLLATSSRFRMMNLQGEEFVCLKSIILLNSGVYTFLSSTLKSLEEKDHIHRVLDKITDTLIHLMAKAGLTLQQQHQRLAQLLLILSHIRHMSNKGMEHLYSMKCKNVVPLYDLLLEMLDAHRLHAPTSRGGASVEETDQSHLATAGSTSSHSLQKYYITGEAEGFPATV
Briefly: Estrogen receptor fluorescence polarisation competitive binding assay, ERα. To be noted: for Selectivity (α/β): ratio of RBA values ERα relative to ERβ; for ERα RBA: relative binding affinity, estradiol (5.7 nM) = 100%. In general terms: In fluorescence polarisation assays a small probe gives low polarisation when free and higher when bound to something large.

Series [3] has as its system MCF-7 human breast cancer cell line. Briefly: Alamar Blue assay for antiproliferative effects. It counts as cell-based. The settings on record: for IC50: Homo sapiens.
Another series deals with T2, human ERβ (Homo sapiens, UniProt Q92731).
T2 construct: purchased Invitrogen
In words: Estrogen receptor fluorescence polarisation competitive binding assay, ERβ.

Series [4] concerns MCF-7 cells. In words: Lactate dehydrogenase (LDH) assay for cytotoxicity.
The nature of series [5]: HPLC stability study in phosphate buffer. The settings on record: half-life, pH range 4–9.
The mark [6] stands for this setting: competitive binding, fluorescence polarisation, read-out: ERα IC50.
[7] abbreviates: MCF7, 72 h, MCF-7, 72 h, Alamar Blue, read-out: IC50 (μM), antiproliferative effects.
The mark [8] stands for this setting: competitive binding, fluorescence polarisation, read-out: ERβ IC50.
Where [9] appears, read: MCF7, 72 h, read-out: IC50 (μM), antiproliferative effects.

T2 sequence (Q92731 whole entry): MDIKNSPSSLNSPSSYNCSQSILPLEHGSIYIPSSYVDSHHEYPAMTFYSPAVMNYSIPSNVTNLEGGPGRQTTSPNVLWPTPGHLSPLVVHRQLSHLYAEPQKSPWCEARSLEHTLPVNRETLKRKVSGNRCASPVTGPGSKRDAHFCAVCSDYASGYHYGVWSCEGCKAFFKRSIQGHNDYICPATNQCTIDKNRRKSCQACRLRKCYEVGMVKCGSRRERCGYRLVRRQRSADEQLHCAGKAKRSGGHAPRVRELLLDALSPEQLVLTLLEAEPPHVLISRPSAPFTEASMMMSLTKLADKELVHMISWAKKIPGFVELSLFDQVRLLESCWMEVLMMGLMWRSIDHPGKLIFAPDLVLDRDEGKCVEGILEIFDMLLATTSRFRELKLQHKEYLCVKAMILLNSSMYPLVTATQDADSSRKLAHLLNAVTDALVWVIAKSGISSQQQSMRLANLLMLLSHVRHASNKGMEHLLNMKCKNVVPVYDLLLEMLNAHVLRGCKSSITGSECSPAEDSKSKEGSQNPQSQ

`CCC(=C(c1ccc(O)cc1)c1ccc(OCCN(C)C(=O)/C(=C/c2cc(OC)c(OC)c(OC)c2)c2ccc(OC)c(O)c2)cc1)c1ccccc1` (mixture of isomers) [Compound 3i, (E/Z)-2-(3-Hydroxy-4-methoxyphenyl)-N-(2-(4-((Z)-1-(4-hydroxyphenyl)-2-phenylbut-1-en-1-yl)phenoxy)-ethyl)-N-methyl-3-(3,4,5-trimethoxyphenyl)acrylamide]: in the series with MCF-7 cells [1], the “apoptosis (in words)” value is reported as “potently induce apoptosis”. Further, the “apoptosis / toxic effects in PBMCs (in words)” value (from here on “apoptosis / toxic effects”) in series [2] is “lack of toxicity”. Further, the IC50 (commonly the point on the concentration scale where inhibition reaches its midpoint) on human ERα (setting [6]) came to 182 nM; in series [3] (setting [7]), 4.2 µM; at human ERβ (setting [8]), 436 nM. Moreover, the “Selectivity (α/β)” value at human ERα worked out at 2.44. Moreover, the “ERα RBA” value on human ERα is recorded as 3.13%.

On to `COc1ccc(/C=C\c2cc(OC)c(OC)c(OC)c2)cc1O` [CA4, Combretastatin A-4, reference compound], for which, in the series on MCF-7 cells [4], the “cytotoxicity (LDH assay)” value is listed as 13%. Moreover, the IC50 in series [3] (setting [7]) amounted to 0.008 µM.

On to `CNCCOc1ccc(C(=C2CCCCC2)c2ccc(O)cc2)cc1` [Compound 11b, 4-(Cyclohexaneylidene(4-(2-(methylamino)ethoxy)phenyl)methyl)phenol], for which, in series [3] (setting [7]), the IC50 was 4.78 µM.

For `CNCCOc1ccc(C(=C2CCCCCC2)c2ccc(O)cc2)cc1` [Compound 11c, 4-(Cycloheptylidene(4-(2-(methylamino)ethoxy)phenyl)methyl)phenol], the apoptosis with MCF-7 cells [1] came out at 79.7 ± 5.2%. For the same compound, the “apoptosis (in words)” value in the series with MCF-7 cells [1] is on record as “potently induce apoptosis”. Further, the “apoptosis / toxic effects” value in series [2] is on record as “induced apoptosis in PBMCs”. Further, the IC50 amounted to 1740 nM on human ERα (setting [6]), 1.38 µM in series [3] (setting [7]) and 199 nM at human ERβ (setting [8]). Moreover, the “Selectivity (α/β)” value at human ERα amounted to 0.12. Further, on human ERα, the “ERα RBA” value came to 0.328%.

`CNCCOc1ccc(C(=C2CCCCCCC2)c2ccc(O)cc2)cc1` [Compound 11d, 4-(Cyclooctylidene(4-(2-(methylamino)ethoxy)phenyl)methyl)phenol]: the values for the IC50 (on human ERα (setting [6]); in series [3] (setting [7]); at human ERβ (setting [8])) were 170 nM, 3.23 µM and 112 nM, respectively. For the same compound, the “Selectivity (α/β)” value at human ERα is 0.67. At human ERα, the “ERα RBA” value is on record as 3.35%.

Regarding `CNCCOc1ccc(C(=C2CCC(C)CC2)c2ccc(O)cc2)cc1` (stereo not drawn) [Compound 11e, 4-((4-(2-(Methylamino)ethoxy)phenyl)(4-methylcyclohexaneylidene)methyl)phenol], in the series on MCF-7 cells [1], the apoptosis amounted to 76% and the “apoptosis (in words)” value was “potently induce apoptosis”. Also, the “apoptosis / toxic effects” value in series [2] is “induced apoptosis in PBMCs”. Moreover, the IC50 on human ERα (setting [6]) was found to be 3160 nM. Besides, on human ERα, the “Selectivity (α/β)” value turned out to be 0.02 and the “ERα RBA” value is given as 0.180%. Moreover, in series [3] (setting [7]), the IC50 stood at 1.77 µM. For the same compound, on human ERβ (setting [8]), the IC50 was 67 nM.

As for `COc1ccc(/C=C(/C(=O)N(C)CCOc2ccc(C(=C3CCCC3)c3ccc(O)cc3)cc2)c2cc(OC)c(OC)c(OC)c2)cc1O` [Compound 13a, (E)-N-(2-(4-(Cyclopentylidene(4-hydroxyphenyl)methyl)phenoxy)ethyl)-3-(3-hydroxy-4-methoxyphenyl)-N-methyl-2-(3,4,5-trimethoxyphenyl)acrylamide], the IC50 in series [3] (setting [9]) turned out to be 1.38 µM.

For `COc1ccc(/C=C(/C(=O)N(C)CCOc2ccc(C(=C3CCCCC3)c3ccc(O)cc3)cc2)c2cc(OC)c(OC)c(OC)c2)cc1O` [Compound 13b, (E)-N-(2-(4-(Cyclohexaneylidene(4-hydroxyphenyl)methyl)phenoxy)ethyl)-3-(3-hydroxy-4-methoxyphenyl)-N-methyl-2-(3,4,5-trimethoxyphenyl)acrylamide], the IC50 in series [3] (setting [7]) worked out at 2.01 µM.

In turn, `COc1ccc(/C=C(/C(=O)N(C)CCOc2ccc(C(=C3CCCCCC3)c3ccc(O)cc3)cc2)c2cc(OC)c(OC)c(OC)c2)cc1O` [Compound 13c, (E)-N-(2-(4-(Cycloheptylidene(4-hydroxyphenyl)methyl)phenoxy)ethyl)-3-(3-hydroxy-4-methoxyphenyl)-N-methyl-2-(3,4,5-trimethoxyphenyl)acrylamide] displayed an apoptosis in the series on MCF-7 cells [1] of 20%. In series [3] (setting [7]), the IC50 came to 2.5 µM.

As for `COc1ccc(/C=C(/C(=O)N(C)CCOc2ccc(C(=C3CCCCCCC3)c3ccc(O)cc3)cc2)c2cc(OC)c(OC)c(OC)c2)cc1O` [Compound 13d, (E)-N-(2-(4-(Cyclooctylidene(4-hydroxyphenyl)methyl)phenoxy)ethyl)-3-(3-hydroxy-4-methoxyphenyl)-N-methyl-2-(3,4,5-trimethoxyphenyl)acrylamide], in the series on MCF-7 cells [1], the G2/M-arrest was found to be 27%, the apoptosis stood at 36% and the “apoptosis (in words)” value is on record as “potently induce apoptosis”. Moreover, the “apoptosis / toxic effects” value in series [2] was “lack of toxicity”. The IC50 in series [3] (setting [9]) was 0.346 µM.

With `COc1ccc(/C=C(/C(=O)N(C)CCOc2ccc(C(=C3CCC(C)CC3)c3ccc(O)cc3)cc2)c2cc(OC)c(OC)c(OC)c2)cc1O` (stereo not drawn) [Compound 13e, (E)-3-(3-Hydroxy-4-methoxyphenyl)-N-(2-(4-((4-hydroxyphenyl)(4-methylcyclohexaneylidene)methyl)-phenoxy)ethyl)-N-methyl-2-(3,4,5-trimethoxyphenyl) acrylamide], in the series with MCF-7 cells [1], the G2/M-arrest is 18%, the apoptosis worked out at 48% and the “apoptosis (in words)” value is on record as “potently induce apoptosis”. The “apoptosis / toxic effects” value in series [2] is reported as “lack of toxicity”. At human ERα, the IC50 was determined as 19 nM, the “Selectivity (α/β)” value was found to be 12.3 and the “ERα RBA” value was found to be 30%. Moreover, the “selectivity towards ERα over ERβ” value at human ERα (binding affinity preference) is listed as 12 fold. In addition, the IC50 in series [3] (setting [9]) was found to be 0.182 µM. In series [3] (MCF7, read-out: IC50, antiproliferative activity), the IC50 turned out to be 0.187 µM. Further, the IC50 on human ERβ was determined as 229 nM.

For the compound `CCC(=C(c1ccccc1)c1ccc(OCCN(C)C(=O)CCC(=O)O)cc1)c1ccccc1` [Compound 14a, N-{2-[4-(1,2-Diphenylbut-1-enyl)phenoxy]ethyl}-N-methylsuccinamic acid], the IC50 in series [3] (setting [7]) was more than 50 µM. In addition, the “antiproliferative activity (in words)” value in series [3] (MCF-7) is “very low antiproliferative activity; also recorded: no significant antiproliferative activity”.

In the case of `CC/C(=C(\c1ccccc1)c1ccc(OCCN(C)C(=O)CCC(=O)Oc2cc(/C=C(/C(=O)OC)c3cc(OC)c(OC)c(OC)c3)ccc2OC)cc1)c1ccccc1` [Compound 16c, N-{2-[4-((Z)-1,2-Diphenylbut-1-enyl)phenoxy]ethyl}-N-methylsuccinamic acid 2-methoxy-5-[(E)-2-methoxycarbonyl-2-(3,4,5-trimethoxyphenyl)vinyl]phenyl ester], the half-life (as a rule, the time in which the quantity being followed falls by half) at 14.6 µg/mL in series [5] is more than 20 h. Moreover, the IC50 at human ERα (setting [6]) was 70.9 nM; on human ERβ (setting [8]), 90.1 nM. The “Selectivity (α/β)” value on human ERα is recorded as 1.29. At human ERα, the “ERα RBA” value is 8.04%.

Consider `CC/C(=C(\c1ccc(O)cc1)c1ccc(OCCNC)cc1)c1ccccc1` [Endoxifen], for which the “cytotoxicity (LDH assay)” value in the series on MCF-7 cells [4] worked out at 23%. Besides, the IC50 at human ERα (setting [6]) was 47 nM; in series [3] (setting [7]), 0.029 µM; on human ERβ (setting [8]), 118 nM. For the same compound, on human ERα, the “Selectivity (α/β)” value came to 2.55. Further, the “ERα RBA” value on human ERα was found to be 12.1%.

As to “N-(2-{4-[1,2-Bis-(4-hydroxyphenyl)but-1-enyl]phenoxy}ethyl)-N-methylsuccinamic acid [Compound 14c]”, at human ERα (setting [6]), the IC50 amounted to 11.3 nM. Further, the “increase in binding affinity compared to 4-hydroxytamoxifen” value on human ERα (in both ER isoforms) is “approximately 3 fold”. On human ERα, the “Selectivity (α/β)” value stood at 0.60 and the “ERα RBA” value is given as 50.44%. Also, at human ERβ (setting [8]), the IC50 was determined as 6.7 nM.
